Experimental data reported in patent US20070066646A1, “Compounds for Inhibiting Copper-Containing Amine Oxidases and Uses Thereof” (GENMEDICA THERAPEUTICS SL, priority 2005, published 2007).

Target: T1, Human SSAO (Homo sapiens, UniProt Q16853)
T1 construct: Human or mice adipose tissue homogenates, used as a source of SSAO activity; from tissue; host or cells: human adipose tissue homogenate
T1 sequence (Q16853 1-763): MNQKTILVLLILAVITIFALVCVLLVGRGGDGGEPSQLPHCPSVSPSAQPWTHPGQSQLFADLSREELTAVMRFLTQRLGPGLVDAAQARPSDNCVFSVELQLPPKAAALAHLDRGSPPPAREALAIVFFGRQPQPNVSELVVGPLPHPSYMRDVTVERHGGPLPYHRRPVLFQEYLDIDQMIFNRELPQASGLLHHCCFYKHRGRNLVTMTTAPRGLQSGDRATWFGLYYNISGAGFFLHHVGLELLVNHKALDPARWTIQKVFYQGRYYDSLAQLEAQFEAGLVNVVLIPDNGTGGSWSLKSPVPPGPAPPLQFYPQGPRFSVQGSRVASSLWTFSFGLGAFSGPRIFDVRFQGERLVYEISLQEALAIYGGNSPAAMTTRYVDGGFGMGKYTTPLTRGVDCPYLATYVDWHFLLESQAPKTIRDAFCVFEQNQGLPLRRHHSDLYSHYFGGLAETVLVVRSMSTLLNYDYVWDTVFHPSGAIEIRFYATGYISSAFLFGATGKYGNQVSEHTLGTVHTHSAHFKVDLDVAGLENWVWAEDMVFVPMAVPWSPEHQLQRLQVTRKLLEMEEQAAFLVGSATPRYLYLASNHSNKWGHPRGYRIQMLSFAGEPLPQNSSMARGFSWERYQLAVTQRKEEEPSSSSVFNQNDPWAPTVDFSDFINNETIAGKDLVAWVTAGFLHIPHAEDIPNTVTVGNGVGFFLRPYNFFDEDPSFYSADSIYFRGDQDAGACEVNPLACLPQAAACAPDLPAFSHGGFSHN
Assay: SSAO activity determination (H2O2 detection with horseradish peroxidase/Amplex Red, benzylamine as substrate)
Type: biochemical
Settings: human adipose tissue homogenates as SSAO source, 20 min preincubation at 37° C., semicarbazide control subtracted
Procedure: SSAO Activity Determination:
All assays were performed at 37° C. with SSAO from human or mice adipose tissue. The enzyme activity was measured through detection of hydrogen peroxide formed by the oxidation of benzylamine. This method is based on the horseradish peroxidase catalyzed hydrogen peroxide oxidation of 10-acetyl-3,7-dihydroxyphenoxazine (Molecular Probes A-6550), that produces resorufin a highly fluorescent product (excitation, 545 nm; emission, 590 nm) (Zhou and Panchuk-Voloshina, 1997). Human or mice adipose tissue homogenates, used as a source of SSAO activity, were preincubated in 96 well microplates for 20 min at 37° C. in 180 μL of 200 mM Phosphate buffer and H2O2-detecting mixture containing horseradish peroxidase (final concentration 1 U/mL) and Amplex Red reagent (60 μM) and different concentrations of inhibitors when necessary. Catalytic reaction was initiated by addition of 20 μL of benzylamine as substrate at 10 mM for human homogenates giving final concentrations of 100 μM and 1 mM respectively. Fluorescence intensity of the samples was measured continuously during 1 h (excitation, 545 nm; emission, 590 nm) and H2O2 concentration was calculated from calibration curves generated by serial dilutions of standard H2O2. To evaluate the amount of H2O2 formed specifically via SSAO-mediated reaction, semicarbazide 100 μM was included in the control wells subjected to the same treatments and these values were subtracted from the total amount of H2O2 formed.
The inhibition was measured as % decrease of the signal compared to a control without inhibitor. Blank values in absence of substrates were subtracted from the fluorescence for each experimental condition. The IC50 shown in Table 1 were calculated with GraphPad Prism 4 program.

Structure (SMILES) | IC50 [µM]
O=C(NO)C1Cc2ccccc2C1 [compound 2] | 1.1 ± 0.04
O=C(CNC(=O)c1ccc(Br)cc1)NO [compound 3] | 0.1 ± 0.03
O=C(NO)C(CO)NS(=O)(=O)c1ccc(-c2ccccc2)cc1 (stereo not shown) [compound 5] | 0.25 ± 0.02
CC(O)C(NS(=O)(=O)c1ccc(-c2ccccc2)cc1)C(=O)NO (stereo not shown) [compound 6] | 0.3 ± 0.1
CCC(C)(C)c1ccc(S(=O)(=O)NC(CO)C(=O)NO)cc1 (stereo not shown) [compound 10] | 0.041 ± 0.008
CCC(C)(C)c1ccc(S(=O)(=O)NCC(=O)NO)cc1 [compound 12] | 1.57 ± 0.175
O=C(NO)C(CO)NS(=O)(=O)c1ccc2ccccc2c1 (stereo not shown) [compound 13] | 0.067 ± 0.001
O=C(CNS(=O)(=O)c1ccc2ccccc2c1)NO [compound 17] | 0.217 ± 0.039
CN(C)c1cccc2ccc(S(=O)(=O)NC(CO)C(=O)NO)cc12 (stereo not shown) [compound 21] | 0.097 ± 0.021
CC(O)C(NS(=O)(=O)c1ccc2cccc(N(C)C)c2c1)C(=O)NO (stereo not shown) [compound 22] | 0.369 ± 0.071
Cc1ccc(C2(C(=O)NC(CCC(=O)NO)C(=O)O)CCCC2)cc1 (stereo not shown) [compound 27] | 0.214 ± 0.041
O=C(O)CCC(NC(=O)c1cc2ccccc2[nH]1)C(=O)O (stereo not shown) [compound 30] | 0.165 ± 0.007
Cc1ccc(/C=C/C(=O)NC(CCC(=O)O)C(=O)O)cc1 (stereo not shown) [compound 31] | 0.128 ± 0.03
NC(=O)C1CCCN1C(=O)c1ccc(-c2ccccc2)cc1 (stereo not shown) [compound 32] | 0.121 ± 0.047
CC(C)(C)c1ccc(C(=O)N2CCCC2C(N)=O)cc1 (stereo not shown) [compound 33] | 0.09 ± 0.002
NC(=O)C1CCCN1C(=O)c1cc2ccccc2cc1O (stereo not shown) [compound 34] | 0.147 ± 0.044
NC(=O)C1CCCN1C(=O)c1ccc2ncccc2c1 (stereo not shown) [compound 35] | 0.16 ± 0.031
NC(=O)C1CCCN1C(=O)c1nccc2ccccc12 (stereo not shown) [compound 36] | 0.078 ± 0.024
O=C(CCC(=O)Nc1ccccc1O)NO [compound 38] | 0.14 ± 0.01
Nc1ccc(C(=O)NCCOc2ccccc2)cc1O [compound 42] | 0.173 ± 0.009
Nc1ccc(C(=O)NCCCc2ccccc2)cc1O [compound 45] | 0.146 ± 0.005
Nc1ccc(C(=O)NCCCCc2ccccc2)cc1O [compound 46] | 0.401 ± 0.03
Nc1ccc(O)c(C(=O)NCc2ccccc2)c1 [compound 47] | 0.41 ± 0.063
Nc1ccc(O)c(C(=O)NCc2ccccc2O)c1 [compound 48] | 0.074
Nc1ccc(O)c(C(=O)NCc2ccc(F)cc2)c1 [compound 49] | 0.253 ± 0.002
COc1cc(CNC(=O)c2cc(N)ccc2O)cc(OC)c1 [compound 50] | 0.577 ± 0.027
Nc1ccc(O)c(C(=O)NCCOc2ccccc2)c1 [compound 52] | 0.189 ± 0.016

The remaining molecules from weak to strong by IC50, led by results:

IC50 [µM] | Structure (SMILES)
1.9 ± 0.2 | NCC(NS(=O)(=O)c1ccc(-c2ccccc2)cc1)C(=O)NO (stereo not shown) [compound 7]
0.941 ± 0.026 | O=C(CCc1ccccc1O)NCc1ccc(C(=O)NO)cc1 [compound 25]
0.789 ± 0.061 | CC(O)C(NS(=O)(=O)c1ccc2cccnc2c1)C(=O)NO (stereo not shown) [compound 20]
0.762 ± 0.06 | Nc1ccc(O)c(C(=O)NCCCCc2ccccc2)c1 [compound 55]
0.7 ± 0.04 | Cc1ccc(S(=O)(=O)NCc2ccc(C(=O)NO)cc2)cc1 [compound 23]
0.618 ± 0.118 | Nc1ccc(O)c(C(=O)NCCc2ccccc2)c1 [compound 53]
0.575 ± 0.023 | Nc1ccc(O)c(C(=O)NCCCc2ccccc2)c1 [compound 54]
0.477 ± 0.064 | Nc1ccc(O)c(C(=O)NCc2ccc3ccccc3c2)c1 [compound 51]
0.39 ± 0.04 | CC(NC(=O)CCC(=O)NO)c1ccc2ccccc2c1 (stereo not shown) [compound 39]
0.337 ± 0.07 | CC(NC(=O)c1ccc(N)c(O)c1)c1ccc2ccccc2c1 (stereo not shown) [compound 43]
0.334 ± 0.08 | Cc1ccc(C2(C(=O)NCc3ccc(C(=O)NO)cc3)CCCC2)cc1 [compound 24]
0.259 ± 0.062 | Cc1ccc(CCCC(=O)NC(CCC(=O)O)C(=O)O)cc1 (stereo not shown) [compound 29]
0.25 ± 0.056 | Nc1ccc(C(=O)NCc2ccc3ccccc3c2)cc1O [compound 41]
0.229 ± 0.092 | O=C(O)CCC(NC(=O)CCCc1ccccc1)C(=O)O (stereo not shown) [compound 28]
0.217 ± 0.039 | O=C(CNS(=O)(=O)c1ccc2ccccc2c1)NO [compound 15]
0.202 ± 0.026 | Nc1ccc(C(=O)NCc2ccc(F)cc2)cc1O [compound 40]
0.185 ± 0.031 | Nc1ccc(C(=O)NCCc2ccccc2)cc1O [compound 44]
0.18 ± 0.01 | CC(CCc1ccccc1)NC(=O)CCC(=O)NO (stereo not shown) [compound 37]
0.14 ± 0.03 | Cc1ccc(S(=O)(=O)NC(CN)C(=O)NO)cc1 (stereo not shown) [compound 19]
0.136 ± 0.04 | CCCc1ccc(S(=O)(=O)NC(C(=O)NO)C(C)O)cc1 (stereo not shown) [compound 9]
0.125 ± 0.002 | O=C(O)CCC(NC(=O)Cc1ccc(-c2ccccc2)cc1)C(=O)O (stereo not shown) [compound 26]
0.066 ± 0.001 | CCCc1ccc(S(=O)(=O)NC(CO)C(=O)NO)cc1 (stereo not shown) [compound 8]
0.054 ± 0.007 | CC(O)C(NS(=O)(=O)c1ccc2ccccc2c1)C(=O)NO (stereo not shown) [compound 14]
0.041 ± 0.001 | Cc1ccc(S(=O)(=O)NC(C(=O)NO)C(C)O)cc1 (stereo not shown) [compound 18]
0.004 ± 0.0005 | CCC(C)(C)c1ccc(S(=O)(=O)NC(C(=O)NO)C(C)O)cc1 (stereo not shown) [compound 11]
